# In patent publication US11213514B2, “Alpha-1-adrenergic receptor agonist therapy” (The Regents of the University of California, priority 2016, dated 2022):
# Values joined by “and” are separate entries in the source; they are usually repeats but may differ in a detail not shown here. Equal values may be shown once. Read-outs that look alike come from different tables or passages of the source.
# Experiments:
# [1] = test system: neonatal rat ventricular myocytes (NRVMs); test: Annexin V / propidium iodide apoptosis and cell death in NRVMs; format: cell-based
# Method: FIGS. 5A-5B. In neonatal rat ventricular myocytes, dabuzalgron protects against apoptotic and necrotic cell death due to doxorubicin. […] Apoptosis was detected using FITC-labeled Annexin V, cell death was detected using propridium iodide, and nuclei were labeled with Hoechst. FIG. 5A. Representative epifluorescence microscopy for each treatment condition. FIG. 5B. Fluorescence intensity was analyzed using Image J software for 3 independent experiments, using at least 2 wells per condition for each experiment.
# Cells were washed with cold PBS two times then incubated with 200 μl binding buffer (10 mM HEPES, 140 mM NaCl, and 2.5 mM CaCl2, pH 7.4) including 10 μL fluorescein isothiocyanate (FITC)-labeled Annexin V, 2 μL propidium iodide (PI) and 1 μg/mL Hoechst 33342 (Molecular Probes, USA) for 15 min at room temperature. They were examined under a epifluorescence microscopy (Olympus IX81 Inverted Light Microscope, UNC Microscopy Core). Images were analyzed using Image J software. The experiment was carried out three independent times with duplicates of each treatment condition. An average of 352 nuclei were counted in an average of 6 microscopic fields per experiment.
# [2] = test system: mice lacking the α1A-AR (AKO); test: Doxorubicin cardiotoxicity in mice lacking the α1A-AR (survival, anatomy, conscious echocardiography)
# Source text: FIGS. 2A-2B. […] On Day 7 the mice underwent echocardiography prior to sacrifice. FIG. 2A. Fractional shortening, a measure of contractile function, with representative M-mode echocardiogram images. […] FIG. 2B. Heart sections from some of these mice (i.e. wild type mice) stained with Masson Trichrome. Fibrosis (weighted average collagen content) was quantified using Aperio ImageScope software.
# C57Bl6J mice were from Jackson Laboratory or from our breeding colony. α1A-AR knockout (AKO) mice from Paul C. Simpson were congenic on a C57Bl6J background for at least 10 generations and produced by heterozygous breeding in our animal facility. 8-12 week old males were used in all experiments. Female Sprague-Dawley rats with newborn litters were from Charles River. Animal care and experimental protocols were approved by the UNC IACUC and complied with Guide for the Care and the use of Laboratory Animals (National Research Council Committee for the Update of the Guide for the Care and Use of Laboratory Animals, 2011).
# On Day 7, mice underwent echocardiography and were sacrificed by cervical dislocation after an overdose of isoflurane.
# Conscious transthoracic echocardiography was performed on loosely restrained mice in the McAllister Heart Institute Animal Models Core using a VisualSonics Vevo 2100 ultrasound system (VisualSonics, Inc., Toronto, Ontario, Canada). Two-dimensional and M-mode echocardiography were performed in the parasternal long-axis view at the level of the papillary muscle. Left ventricular systolic function was assessed by fractional shortening (% FS=[(LVEDD−LVESD)/LVEDD]×100). Reported values represent the average of at least five cardiac cycles per mouse. Sonographers and investigators were blinded to mouse treatment condition during image acquisition and analysis.
# [3] = test system: cytochrome c, caspases, PARP; test: Immunoblot for cytochrome c and downstream effectors of apoptosis in NRVMs; format: cell-based, rat; conditions: NRVM lysates, 4 hours
# Method: FIG. 6A-6C. […] FIG. 6A. Mitochondrial membrane potential was assessed using JC-1 and fluorescent intensity was quantified using a plate reader. Red indicates intact mitochondrial membrane potential; green indicates compromised mitochondrial membrane potential (relative). Lysates were blotted for selected regulators of apoptosis and mitochondrial cell death effectors.
# Homogenized tissue or cells were lysed in RIPA buffer with protease and phosphatase inhibitor (as above) and the lysate was passed through a Qiashredder. Equal protein abundance was assured with the Bradford assay (tissue lysates) or equal cell number (NRVMs). Samples were run for 2 hours at 140 v on ice on a Novex NuPAGE 4-12% Bis-Tris gel then transferred to a PVDF membrane at 90V for 1 hour on ice. Membranes were blocked in 5% milk at room temperature for 1 hour. We used Cell Signaling kit #9100 (pERK Thr202/Tyr204 1:250, ERK 1:1000, anti-rabbit HRP 1:1000). BID: (Santa Cruz, SC-11423); Cytochrome C: (Santa Cruz, SC-13560); AIF: (Santa Cruz, SC-13116); Caspase 8: (MBL international corporation, JM-3020-100); PARP: (Cell Signaling, #9532); Caspase 3: (Cell Signaling, #9665); Cleaved caspase 3: (Cell Signaling, #9664)
# PGC1α = test: qRT-PCR for PGC1α in mouse heart tissue; format: in vivo
# Method: (§1) FIGS. 3A-3E. […] FIG. 3A. […] FIG. 3B. […] FIG. 3C. […] FIG. 3E.
# (§2) (FIG. 3B). […] (FIG. 3C).
# Total RNA was isolated from cells and tissue (QiagenRNeasy Plus mini kit #74134) and analyzed using a NanoDrop (ThermoScientific). For qRT-PCR, one […]g of RNA was reverse transcribed using High Capacity cDNA Reverse Transcription Kit (Life Technologies #4368814). Two step qRT-PCR reactions contained 2% of the cDNA product. All reactions were performed in triplicate in a Roche 480 Light Cycler. Relative quantitation of PCR products used the ΔΔCt method relative to two validated reference genes (Tbp and Polr2a). Similar efficiencies were confirmed for all primers. All probes and primers were from Roche.
# mouse heart ATP content = test system: mouse heart ATP content
# Method: FIGS. 3A-3E. […] Heart tissue was collected immediately after sacrifice on Day 7. FIG. 3A. […] Gene set analysis was performed on the DESeq2-derived statistics from an omnibus test across these four categories. […] FIG. 3B. RNA abundance for all sequenced cytochrome C oxidase subunits (25 genes), mitochondrial complex I subunits (42 genes), and ATP synthase subunits (17 genes) was aggregated by group and compared to vehicle treatment. FIG. 3C. Quantitative RT-PCR for peroxisome proliferator-activated receptor gamma coactivator 1-alpha (PGC1α) was performed on mouse heart tissue (n in individual bars) FIG. 3D. ATP content was measured in freshly harvested mouse heart tissue (total n in individual bars), then quantified relative to protein content. […] FIG. 3E. Thiobarbituric acid reactive substances (TBARS) were assayed in mouse myocardium.
# as §2
# Mouse hearts were removed and immediately processed for luciferin-luciferase ATP assay (ThermoFisher Scientific A22066) according to manufacturer instruction. Tissue was homogenized and heated at 95 C for 7 minutes, centrifuged at 14000 rpm for 5 minutes. Total protein in the supernatant was quantified using the Bradford Assay (Pierce #23200). Luminescence was measured at 560 nm.
# [4] = test system: TBARS (lipid peroxidation) in mouse myocardium; test: Thiobarbituric acid reactive substances (TBARS) in mouse heart tissue; format: in vivo
# Source text: as §1, §2
# [5] = α1A-KO mice, Dox 20 mg/kg i.p. + dabuzalgron 20 μg/kg/d gavage 7 days
# [6] = α1A-KO mice, Dox + 1240 20 μg/kg/d, Day 7 echocardiography
# [7] = hearts of mice treated with DOX
# [8] = NRVMs, DOX, four hour treatment
smiles,measurement,setting,value
"Cc1c(OCC2=NCCN2)ccc(Cl)c1NS(C)(=O)=O [dabuzalgron, N-[6-chloro-3-(4,5-dihydro-1H-imidazol-2-ylmethoxy)-2-methylphenyl]methanesulfonamide]",Annexin V or propidium iodide staining vs untreated cells,[1],did not change
same,effect on DOX-induced necrotic cell death,"[1]; NRVMs, DOX 204 with dabuzalgron 1004, four hours",abrogated
same,effect on DOX-induced apoptosis,"[1]; NRVMs, DOX with dabuzalgron 1004, four hours",abrogated
same,effect on reduction in contractile function after DOX,[2]; AKO mice,not rescued
same,effect of dabuzalgron on survival after DOX,"[2]; AKO mice, DOX 20 mg/kg i.p., dabuzalgron 10 μg/kg twice daily 7 days",unaffected
same,7-day survival,[2]; [5],50%
same,Body Wt Day 7,[2]; [5],26.4 ± 1.2 g
same,HW/BW,[2]; [5],0.39 ± 0.01 %
same,HW/TL,[2]; [5],5.6 ± 0.2 mg/mm
same,Heart Wt,[2]; [5],101 ± 5 mg
same,Lung Wt/TL,[2]; [5],5.1 ± 0.2 mg/mm
same,FS (Fractional Shortening),[2]; [6],42 ± 2%
same,HR (Heart Rate),[2]; [6],618 ± 19 beats per minute
same,effect on DOX-induced cytochrome c release and cleavage of caspases and PARP,[3]; doxorubicin 2 μM with Dabuzalgron 10 μM,abrogated
same,PGC1α abundance,PGC1α; [7],increased
same,PGC1α abundance,PGC1α; hearts of mice treated with vehicle control,increased
same,ATP content,mouse heart ATP content; hearts of DOX-treated mice,restored
same,ATP content,mouse heart ATP content; uninjured mice,did not affect
same,TBARS content,[4]; co-administration of dabuzalgron with DOX,normalized
"COc1cccc2c1C(=O)c1c(O)c3c(c(O)c1C2=O)C[C@@](O)(C(=O)CO)C[C@@H]3O[C@H]1C[C@H](N)[C@H](O)[C@H](C)O1 [DOX, doxorubicin]",apoptosis (Annexin V staining),[1]; [8],increased
same,necrotic cell death (costaining with Annexin V and propidium iodide),[1]; [8],increased
same,"fractional shortening, DOX-treated AKO vs DOX-treated WT mice","[2]; mouse, in vivo",significantly lower
same,7-day survival,"[2]; α1A-KO mice, Dox 20 mg/kg i.p. + vehicle gavage 7 days",38% and 50%
same,7-day survival,"[2]; α1A-KO mice, Dox 20 mg/kg i.p. + vehicle gavage 7 days, listed as Dox",38%
same,cleavage of caspases and PARP,[3]; doxorubicin 2 μM,caused cleavage
same,cytochrome c release,[3]; doxorubicin 2 μM,increased
same,PGC1α abundance,"PGC1α; mouse heart in vivo, DOX",decreased
same,decrease in ATP content compared to untreated hearts,"mouse heart ATP content; mouse, in vivo",23±7%
same,TBARS abundance,[4]; [7],more abundant
